Experiment [1] concerns the target PDE4B (aa 152-484, Uniprot ID Q07343) (Homo sapiens (Human), UniProt Q07343). In words: PDE4 SPA assay (scintillation proximity assay). The experiment is classed as biochemical. The note with it: read-out: PDE4B2 IC50. In short, it runs like this: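 PDE4B (aa 152-484, ~81.6 pM) preincubated ~10 min with compound, then 1 μM ³H/unlabeled cAMP added in Tris pH 7.5, 1.3 mM MgCl2, 0.004% Brij 35, ~2% DMSO; 30 min at RT. Product captured on SPA beads and counted; IC50 by four-parameter logistic fit.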
For orientation: Scintillation proximity formats need no separation of bound from free tracer.

Another experiment concerns IL-4. In words: Cytokine assay: IL-4 release from PHA-L stimulated human PBMCs. The note with it: Homo sapiens, PBMC, read-out: IL4 IC50. The experiment is classed as cell-based. In short, it runs like this: (§1)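 PBMC thaw, ~250k cells/well; cpd pre-incubation ~10 min RT; PHA-L 3.5 μg/mL final; 48 h, 37° C, 5% CO2; supernatant HTRF; IC50 by 4-parameter logistic.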
The next experiment deals with IL-13. In words: Cytokine assay: IL-13 release from PHA-L stimulated human PBMCs. The experiment is classed as cell-based. As to conditions: Homo sapiens, PBMC, read-out: IL13 IC50. In short, it runs like this:
as §1

The next experiment deals with IFNγ. In words: Cytokine assay: IFNγ release from PHA-L stimulated human PBMCs. The experiment is classed as cell-based. As to conditions: Homo sapiens, PBMC. The method in brief: as §1

The structures appear in SMILES notation.

PDE4B (aa 152-484, Uniprot ID Q07343), sequence (Q07343 324-656): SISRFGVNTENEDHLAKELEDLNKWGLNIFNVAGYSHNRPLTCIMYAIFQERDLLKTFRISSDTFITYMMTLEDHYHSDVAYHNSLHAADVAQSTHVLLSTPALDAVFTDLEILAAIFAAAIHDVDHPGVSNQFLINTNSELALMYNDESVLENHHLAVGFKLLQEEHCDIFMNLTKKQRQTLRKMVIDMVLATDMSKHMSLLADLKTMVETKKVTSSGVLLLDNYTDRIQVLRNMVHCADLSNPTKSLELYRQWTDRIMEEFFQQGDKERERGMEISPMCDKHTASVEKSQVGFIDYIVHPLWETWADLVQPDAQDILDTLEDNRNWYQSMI

Usually IC50 stands for the concentration that inhibits the measured activity by half. Turning to `CCCOc1cc(-c2cccc(C3(C)COB(O)C3)n2)ccc1OC` (stereo not drawn) [Example 29, 4-(6-(4-methoxy-3-propoxyphenyl)pyridin-2-yl)-4-methyl-1,2-oxaborolan-2-ol], the IC50 in experiment [1] turned out to be 10.5 nM; in the experiment with IL-4 it was 9.51 nM; in the experiment with IL-13 it was 3470 nM; in the experiment with IFNγ, 4.82 nM.
`CCCOc1cc(-c2cc(C3CB(O)OC3C)cnn2)ccc1OC` (stereo not drawn) [Example 30, 4-(6-(4-methoxy-3-propoxyphenyl)pyridazin-4-yl)-5-methyl-1,2-oxaborolan-2-ol]: the IC50 turned out to be 15.5 nM in experiment [1], 70.7 nM in the experiment with IL-4, 10000 nM in the experiment on IL-13 and 11.6 nM in the experiment on IFNγ.
`CCCOc1cc(-c2cncc(C3(CO)COB(O)C3)c2)ccc1OC` (stereo not drawn) [Example 31, 4-(hydroxymethyl)-4-(5-(4-methoxy-3-propoxyphenyl)pyridin-3-yl)-1,2-oxaborolan-2-ol]: the IC50 was found to be 4.2 nM in experiment [1], 3.92 nM in the experiment on IL-4, 5730 nM with IL-13 and 2.96 nM in the experiment with IFNγ.
Take `COc1ccc(-c2cncc(C3COB(O)C3)c2)cc1OC` (stereo not drawn) [Example 32, 4-(5-(3,4-dimethoxyphenyl)pyridin-3-yl)-1,2-oxaborolan-2-ol]: the IC50 in experiment [1] was 13 nM; in the experiment on IL-4, 64 nM; in the experiment with IL-13, 2250 nM; with IFNγ, 8.47 nM.
On the same counts, the results for `CCOc1cc(-c2cncc(C3COB(O)C3)c2)ccc1OC` (stereo not drawn) [Example 33, 4-(5-(3-ethoxy-4-methoxyphenyl)pyridin-3-yl)-1,2-oxaborolan-2-ol] are 1.25 nM, 39.8 nM, 181 nM and 1.44 nM.
In the case of `CCCOc1cc(-c2cncc(C3COB(O)C3)c2)ccc1OC` (stereo not drawn) [Example 34, 4-(5-(4-methoxy-3-propoxyphenyl)pyridin-3-yl)-1,2-oxaborolan-2-ol], the 50% inhibitory concentration (IC50) worked out at 0.52 nM in experiment [1], 14.3 nM in the experiment on IL-4, 309 nM in the experiment with IL-13 and 1.39 nM in the experiment on IFNγ.
Consider `COc1ccc(-c2cncc(C3COB(O)C3)c2)cc1OC(C)C` (stereo not drawn) [Example 35, 4-(5-(3-isopropoxy-4-methoxyphenyl)pyridin-3-yl)-1,2-oxaborolan-2-ol], for which the IC50 amounted to 1.17 nM in experiment [1], 6.98 nM in the experiment with IL-4, 230 nM in the experiment with IL-13 and 1.55 nM in the experiment on IFNγ.
On the same counts, the results for `COc1ccc(-c2cncc(C3COB(O)C3)c2)cc1OC1CC1` (stereo not drawn) [Example 36, 4-(5-(3-cyclopropoxy-4-methoxyphenyl)pyridin-3-yl)-1,2-oxaborolan-2-ol] are 0.98 nM, 5.25 nM, 476 nM and 1.27 nM.
For `COc1ccc(-c2cncc(C3COB(O)C3)c2)cc1OCCF` (stereo not drawn) [Example 39, 4-(5-(3-(2-fluoroethoxy)-4-methoxyphenyl)pyridin-3-yl)-1,2-oxaborolan-2-ol], the half-maximal inhibitory concentration (IC50) came to 1.63 nM in experiment [1], 13.8 nM with IL-4, 182 nM with IL-13 and 1.82 nM in the experiment with IFNγ.
For `COc1ccc(-c2cccc(C3COB(O)C3)c2)cc1OCCCF` (stereo not drawn) [Example 40, 4-(3′-(3-fluoropropoxy)-4′-methoxy-[1,1′-biphenyl]-3-yl)-1,2-oxaborolan-2-ol], the IC50 is 0.37 nM in experiment [1], 29.2 nM in the experiment on IL-4, 175 nM with IL-13 and 1.28 nM in the experiment on IFNγ.
For the compound `CCOc1c(OC)ccc(-c2cncc(C3COB(O)C3)c2)c1C(F)F` (stereo not drawn) [Example 41, 4-(5-(2-(difluoromethyl)-3-ethoxy-4-methoxyphenyl)pyridin-3-yl)-1,2-oxaborolan-2-ol], the IC50 in experiment [1] came out at 6.85 nM; in the experiment with IL-4, 6.2 nM; with IL-13, 397 nM; in the experiment on IFNγ, 1.87 nM.
In the case of `CCCOc1c(OC)ccc(-c2cccc(C3COB(O)C3)c2)c1C#N` (stereo not drawn) [Example 42, 3′-(2-hydroxy-1,2-oxaborolan-4-yl)-4-methoxy-3-propoxy-[1,1′-biphenyl]-2-carbonitrile], the IC50 came to 0.35 nM in experiment [1], 90.4 nM with IL-4, 205 nM in the experiment with IL-13 and 1.55 nM in the experiment on IFNγ.
